Laboratory results published in ChEMBL document CHEMBL1132301, “Carbonic anhydrase inhibitors. Synthesis of water-soluble, topically effective, intraocular pressure-lowering aromatic/heterocyclic sulfonamides containing cationic or anionic moieties: is the tail more important than the ring?” (J Med Chem, 1999).

What was measured:
Carbonic anhydrase 4 = biological target: T1, Carbonic anhydrase 4 (Bos taurus, UniProt Q95323)
T1 sequence (Q95323 whole entry): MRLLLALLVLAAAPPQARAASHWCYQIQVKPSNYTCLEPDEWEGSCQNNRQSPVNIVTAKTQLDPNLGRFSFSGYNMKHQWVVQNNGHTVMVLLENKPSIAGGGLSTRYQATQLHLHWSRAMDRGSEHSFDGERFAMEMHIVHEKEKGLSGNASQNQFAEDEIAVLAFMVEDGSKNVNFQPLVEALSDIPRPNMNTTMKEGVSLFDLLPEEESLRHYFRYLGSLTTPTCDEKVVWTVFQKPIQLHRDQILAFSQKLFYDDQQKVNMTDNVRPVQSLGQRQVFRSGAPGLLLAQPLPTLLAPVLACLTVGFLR
Description: Inhibitory activity against bovine lung microsomes carbonic anhydrase isozyme IV (bCA IV).

Carbonic anhydrase 2 = Carbonic anhydrase 2 (Homo sapiens, UniProt P00918)
Description: Inhibitory activity against human recombinant carbonic anhydrase II

Carbonic anhydrase 1 [1] = biological target: T2, Carbonic anhydrase 1 (Homo sapiens, UniProt P00915)
Description: Inhibitory activity against human cloned carbonic anhydrase isozyme I (hCA I, cytosolic form).

Carbonic anhydrase 1 [2] = biological target: T2, Carbonic anhydrase 1; remark: listed apart in the source
Description: Inhibition of human cloned Carbonic anhydrase I (hCA I,cytosolic form)

T2 sequence (P00915 whole entry): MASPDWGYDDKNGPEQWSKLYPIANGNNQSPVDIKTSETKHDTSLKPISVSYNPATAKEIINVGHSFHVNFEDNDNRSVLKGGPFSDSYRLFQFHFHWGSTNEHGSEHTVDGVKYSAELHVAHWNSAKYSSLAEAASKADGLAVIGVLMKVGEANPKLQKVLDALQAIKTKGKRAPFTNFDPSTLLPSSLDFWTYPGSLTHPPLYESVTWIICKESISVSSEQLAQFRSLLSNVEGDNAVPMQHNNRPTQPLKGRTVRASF

SMILES | Ki (Carbonic anhydrase 4) [nM] | Ki (Carbonic anhydrase 1 [1]) [nM] | Ki (Carbonic anhydrase 1 [2]) [nM] | Ki (Carbonic anhydrase 2) [nM]
NS(=O)(=O)c1ccc(NN2C(=O)c3cccnc3C2=O)cc1 | 300 | 21500 | – | 275
Nc1ccc2nc(S(N)(=O)=O)sc2c1 | 19 | – | 70 | –
NS(=O)(=O)c1ccc(CONC(=O)c2cccc(C(=O)O)n2)cc1 | 120 | 2050 | – | 20
NS(=O)(=O)c1ccc(NC(=O)c2cccc(C(=O)O)n2)cc1 | 150 | 15000 | – | –
NS(=O)(=O)c1nc2ccc(NC(=O)c3cccc(C(=O)O)n3)cc2s1 | 11 | 18 | – | 3
NS(=O)(=O)c1ccc(N2C(=O)c3cccnc3C2=O)c(I)c1 | 70 | 610 | – | 33
NS(=O)(=O)c1ccc(NNC(=O)c2cccc(C(=O)O)n2)cc1 | – | 20600 | – | 270
Nc1ccc(S(N)(=O)=O)cc1I | 125 | 6000 | – | –
NS(=O)(=O)c1cc(S(N)(=O)=O)c(NC(=O)c2cccc(C(=O)O)n2)cc1Cl | – | – | – | 9
NS(=O)(=O)c1ccc(N2C(=O)c3cccnc3C2=O)c(F)c1 | 46 | 540 | – | 10
NS(=O)(=O)c1ccc(N2C(=O)c3cccnc3C2=O)c(Br)c1 | 75 | 605 | – | 31
NS(=O)(=O)c1nc2ccc(OCCONC(=O)c3cccc(C(=O)O)n3)cc2s1 | 10 | 15 | – | 3
NS(=O)(=O)c1cccc(NC(=O)c2cccc(C(=O)O)n2)c1 | 285 | – | – | –
NS(=O)(=O)c1ccc(CCN2C(=O)c3cccnc3C2=O)cc1 | 54 | 845 | – | 9
NS(=O)(=O)c1ccc(CCNC(=O)c2cccc(C(=O)O)n2)cc1 | – | – | – | 7
NS(=O)(=O)c1cc(S(N)(=O)=O)c(NC(=O)c2cccc(C(=O)O)n2)c(Cl)c1Cl | 55 | 450 | – | 10
Nc1ccc(S(N)(=O)=O)cc1Br | 66 | – | – | –
NS(=O)(=O)c1nnc(NC(=O)CCNC(=O)c2cccc(C(=O)O)n2)s1 | 9 | 19 | – | 2
Nc1ccc(S(N)(=O)=O)cc1F | 180 | – | – | –
CCN(C(=O)c1cccnc1C(=O)O)C1CC(C)S(=O)(=O)c2sc(S(N)(=O)=O)cc21.CCN(C(=O)c1ncccc1C(=O)O)C1CC(C)S(=O)(=O)c2sc(S(N)(=O)=O)cc21 (stereo not drawn) | 18 | 450 | – | –
NS(=O)(=O)c1ccc(CN2C(=O)c3cccnc3C2=O)cc1 | 79 | – | – | 42
NS(=O)(=O)c1ccc(CNC(=O)c2cccc(C(=O)O)n2)cc1 | – | – | – | 36
NS(=O)(=O)c1nc2ccc(ONC(=O)c3cccc(C(=O)O)n3)cc2s1 | 13 | 16 | – | 2

More lines, main results first:

Ki (Carbonic anhydrase 4) [nM] | Ki (Carbonic anhydrase 1 [1]) [nM] | Ki (Carbonic anhydrase 1 [2]) [nM] | SMILES | Ki (Carbonic anhydrase 2) [nM]
15 | […] | – | NS(=O)(=O)c1nc2ccc(OCCO)cc2s1 | –
450 | – | – | NS(=O)(=O)c1ccc(CCO)cc1 | –
125 | – | – | NCCC(=O)Nc1nnc(S(N)(=O)=O)s1 | –
175 | 6100 | – | Nc1c(S(N)(=O)=O)cc(S(N)(=O)=O)c(Cl)c1Cl | –
– | 600 | – | NS(=O)(=O)c1ccc(NC(=O)c2cccc(C(=O)O)n2)c(I)c1 | –
66 | – | 600 | NS(=O)(=O)c1ccc(NC(=O)c2cccc(C(=O)O)n2)c(Cl)c1 | –
300 | – | – | NS(=O)(=O)c1ccccc1NC(=O)c1cccc(C(=O)O)n1 | –
79 | 620 | – | NS(=O)(=O)c1ccc(N2C(=O)c3cccnc3C2=O)c(Cl)c1 | 44
105 | 2000 | – | NS(=O)(=O)c1ccc(CCONC(=O)c2cccc(C(=O)O)n2)cc1 | 15
1310 | – | – | Nc1ccccc1S(N)(=O)=O | –
310 | 21000 | – | NS(=O)(=O)c1ccccc1N1C(=O)c2cccnc2C1=O | 280
69 | 575 | – | NS(=O)(=O)c1ccc(NC(=O)c2cccc(C(=O)O)n2)c(Br)c1 | –
